Source: patent EP3949965A1 (Consejo Superior de Investigaciones Cientificas, priority 2020, dated 2022)

Key:
in vitro [1] = conditions: human
Vero-E6 cells = conditions: African green monkey
in vitro [2] = conditions: African green monkey

In the case of `O=c1[nH]c2ccccc2n1CCCN1CCC(n2c(=O)[nH]c3cc(Cl)ccc32)CC1` [Domperidone, domperidone], the CC50 at 72 h (in vitro [1]) is reported as 4 µM, the “HIGHEST NONTOXIC CONCENTRATION (MTT)” value (Vero-E6 cells) is reported as 12.5 and the CC50 (in vitro [2]) is reported as 25 µM.
